The values that follow are results of earlier work, collected in patent publication US10952981B2, “Liquid pharmaceutical compositions of baclofen for oral administration” (SLAYBACK PHARMA LLC, priority 2019, dated 2021).

Structures are written as SMILES.

For the compound `NCC(CC(=O)O)c1ccc(Cl)cc1` (stereo not drawn) [Baclofen, 4-amino-3-(4-chlorophenyl)-butanoic acid], the “Concentration of baclofen obtainable” value (aqueous 0.1N HCl or 0.1N NaOH, Ahuja (1985)) is “greater than 20 mg/mL”. Moreover, for the setting “as referred to for Allen et al., 1996, Johnson and Hart, 1993”, the Equilibrium concentration is 4.3 mg/mL. For the same compound, the “Solubility at near neutral pH” value (at a concentration of 2 mg/mL, near neutral pH) was “not soluble”. Also, for the setting “chloroform”, the Solubility in chloroform result was “insoluble”. Besides, under “methanol”, the Solubility in methanol result is given as “very slightly soluble”. Besides, under “water”, the Solubility in water entry was “slightly soluble”.
